This passage reports GI50 and Ki results from patent US11596639B2, “Substituted indole Mcl-1 inhibitors” (Vanderbilt University, priority 2016, dated 2023).

The term Ki denotes the equilibrium dissociation constant of an inhibitor or competing ligand from its target.

Where two headings read alike, the source gives them in different places. Where only a bound is given, the exact number is not on record here.

In experiment [1] the test system is H929 human cancer cell lines. As to the kind of experiment: Cellular viability / proliferation (Cell TiterGlo, 72 h). Format: cell-based. The gist of the method:
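Plating is at 1,000 cells/well in 10% FBS medium; after 24 h, compound is added as a 2-fold series starting at 50 μM with under 1% DMSO.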

A further experiment concerns the target Mcl-1 (Homo sapiens (Human), UniProt Q07820). As to the kind of experiment: Fluorescence polarization anisotropy (FPA) competition assay, FITC-Bak or FITC-Bim BH3 peptide. The format is binding. As to conditions: read-out: Ki for Inhibition of Mcl-1 by FPA assay. (Fluorescence polarisation rises when a labelled molecule tumbles more slowly, as on binding a larger partner.)

[2] abbreviates: Homo sapiens, NCI-H929, 72 h, read-out: GI50 on cellular proliferation of H929 human cancer cell lines, H929 cells, 72 h, Cell TiterGlo, 10% FBS.

Sequence of Mcl-1 (Q07820 172-327): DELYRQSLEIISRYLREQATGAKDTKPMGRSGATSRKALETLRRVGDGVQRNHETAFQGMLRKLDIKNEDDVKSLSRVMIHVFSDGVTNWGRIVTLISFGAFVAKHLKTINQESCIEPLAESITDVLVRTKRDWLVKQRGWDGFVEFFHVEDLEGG

Turning to `Cc1cc(OCCCc2c3n(c4c(-c5c(C)nn(CCN(C)C)c5C)c(Cl)ccc24)[C@H](C)CN(c2cn(C)c4cc(C(=O)O)ccc24)C3=O)cc(C)c1Cl` [Example 309, (R)-3-(7-chloro-10-(3-(4-chloro-3,5-dimethylphenoxy)propyl)-6-(1-(2-(dimethylamino)ethyl)-3,5-dimethyl-1H-pyrazol-4-yl)-4-methyl-1-oxo-3,4-dihydropyrazino[1,2-a]indol-2(1H)-yl)-1-methyl-1H-indole-6-carboxylic acid], the GI50 in experiment [1] (setting [2]) is 530 nM. For the same compound, the Ki on Mcl-1 is less than 1 nM.

Consider `Cc1cc(N2C[C@@H](C)n3c(c(CCCOc4cc(C)c(Cl)c(C)c4)c4ccc(Cl)c(-c5c(C)nn(C)c5C)c43)C2=O)c2c(c1)cc(C(=O)O)n2CC1CCOCC1` [Example 324, (R)-7-(7-Chloro-10-(3-(4-chloro-3,5-dimethylphenoxy)propyl)-4-methyl-1-oxo-6-(1,3,5-trimethyl-1H-pyrazol-4-yl)-3,4-dihydropyrazino[1,2-a]indol-2(1H)-yl)-5-methyl-1-((tetrahydro-2H-pyran-4-yl)methyl)-1H-indole-2-carboxylic acid], for which the GI50 in experiment [1] (setting [2]) came to 610 nM. For the same compound, the Ki on Mcl-1 is less than 1 nM.

For the compound `Cc1cc(OCCCc2c3n(c4c(-c5c(C)ncnc5C)c(Cl)ccc24)[C@H](C)CN(c2cccc4cc(C(N)=O)n(C)c24)C3=O)cc(C)c1Cl` [Example 384, (R)-7-(7-Chloro-10-(3-(4-chloro-3,5-dimethylphenoxy)propyl)-6-(4,6-dimethylpyrimidin-5-yl)-4-methyl-1-oxo-3,4-dihydropyrazino[1,2-a]indol-2(1H)-yl)-1-methyl-1H-indole-2-carboxamide], the GI50 in experiment [1] (setting [2]) came out at 910 nM. Also, the Ki at Mcl-1 came out at 6.8 nM.

Take `Cc1cc(OCCCc2c3n(c4c(-c5c(C)nn(C)c5C)c(Cl)ccc24)[C@H](C)CN(c2cn(C)c4ccc(-c5cn6c(n5)CCC6)cc24)C3=O)cc(C)c1Cl` [Example 419, (R)-7-Chloro-10-(3-(4-chloro-3,5-dimethylphenoxy)propyl)-2-(5-(6,7-dihydro-5H-pyrrolo[1,2-a]imidazol-2-yl)-1-methyl-1H-indol-3-yl)-4-methyl-6-(1,3,5-trimethyl-1H-pyrazol-4-yl)-3,4-dihydropyrazino[1,2-a]indol-1(2H)-one]: the GI50 in experiment [1] (H929 cells, 72 h, Cell TiterGlo, 10% FBS, read-out: GI50 on cellular proliferation of H929 human cancer cell lines) is 1100 nM. Besides, the Ki on Mcl-1 is 2.3 nM.

Take `Cc1cc(OCCCc2c3n(c4c(-c5c(C)nn(C)c5C)c(Cl)ccc24)[C@H](C)CN(c2cc(CN4CCCC4)cc4cc(C(=O)O)n(C)c24)C3=O)cc(C)c1Cl` [Example 401, (R)-7-(7-chloro-10-(3-(4-chloro-3,5-dimethylphenoxy)propyl)-4-methyl-1-oxo-6-(1,3,5-trimethyl-1H-pyrazol-4-yl)-3,4-dihydropyrazino[1,2-a]indol-2(1H)-yl)-1-methyl-5-(pyrrolidin-1-ylmethyl)-1H-indole-2-carboxylic acid]: the GI50 in experiment [1] (setting [2]) came to 280 nM. Also, the inhibition constant Ki on Mcl-1 was less than 1 nM.

Regarding `CNS(=O)(=O)c1ccc2c(c1)c(N1C[C@@H](C)n3c(c(CCCOc4cc(C)c(Cl)c(C)c4)c4ccc(Cl)c(-c5c(C)nn(C)c5C)c43)C1=O)cn2C` [Example 267, (R)-3-(7-chloro-10-(3-(4-chloro-3,5-dimethylphenoxy)propyl)-4-methyl-1-oxo-6-(1,3,5-trimethyl-1H-pyrazol-4-yl)-3,4-dihydropyrazino[1,2-a]indol-2(1H)-yl)-N,1-dimethyl-1H-indole-5-sulfonamide], the GI50 in experiment [1] (setting [2]) came to 3100 nM. Besides, the Ki on Mcl-1 was 4.7 nM.

As for `Cc1cc(OCCCc2c3n(c4c(-c5c(C)n[nH]c5C)c(Cl)ccc24)[C@H](C)CN(c2cc(C(=O)O)c4cnn(C)c4c2)C3=O)cc(C)c1Cl` [Example 93, (R)-6-(7-chloro-10-(3-(4-chloro-3,5-dimethylphenoxy)propyl)-6-(3,5-dimethyl-1H-pyrazol-4-yl)-4-methyl-1-oxo-3,4-dihydropyrazino[1,2-a]indol-2(1H)-yl)-1-methyl-1H-indazole-4-carboxylic acid], the GI50 in experiment [1] (setting [2]) stood at 7500 nM. Moreover, at Mcl-1, the Ki was less than 1 nM.

Take `Cc1cc(N2C[C@@H](C)n3c(c(CCCOc4cc(C)c(Cl)c(C)c4)c4ccc(Cl)c(-c5c(C)ncnc5C)c43)C2=O)c2c(c1)cc(C(N)=O)n2C` [Example 376, (R)-7-(7-Chloro-10-(3-(4-chloro-3,5-dimethylphenoxy)propyl)-6-(4,6-dimethylpyrimidin-5-yl)-4-methyl-1-oxo-3,4-dihydropyrazino[1,2-a]indol-2(1H)-yl)-1,5-dimethyl-1H-indole-2-carboxamide]: the GI50 in experiment [1] (setting [2]) amounted to 750 nM. Besides, the Ki on Mcl-1 is 6.5 nM.

As to `Cc1cc(OCCCc2c3n(c4c(-c5c(C)nn(C)c5C)c(Cl)ccc24)[C@H](C)CN(c2ccc4c(c2)c(C(=O)O)nn4C)C3=O)cc(C)c1Cl` [Example 116, (R)-5-(7-Chloro-10-(3-(4-chloro-3,5-dimethylphenoxy)propyl)-4-methyl-1-oxo-6-(1,3,5-trimethyl-1H-pyrazol-4-yl)-3,4-dihydropyrazino[1,2-a]indol-2(1H)-yl)-1-methyl-1H-indazole-3-carboxylic acid], the GI50 in experiment [1] (setting [2]) was found to be 9700 nM. Besides, the Ki at Mcl-1 was less than 1 nM.

With `Cc1cc(OCCCc2c3n(c4c(-c5c(C)nn(C)c5C)c(Cl)ccc24)[C@H](C)CN(c2coc4ccccc24)C3=O)cc(C)c1Cl` (single isomer, unassigned) [Example 237], in experiment [1] (setting [2]), the GI50 turned out to be 7600 nM. Further, the Ki at Mcl-1 is 14 nM.

Take `Cc1cc(OCCCc2c3n(c4c(-c5c(C)nn(C)c5C)c(Cl)ccc24)[C@H](C)CN(c2cccc4c(C)c(C(=O)O)n(C)c24)C3=O)cc(C)c1Cl` [Example 316, (R)-7-(7-Chloro-10-(3-(4-chloro-3,5-dimethylphenoxy)propyl)-4-methyl-1-oxo-6-(1,3,5-trimethyl-1H-pyrazol-4-yl)-3,4-dihydropyrazino[1,2-a]indol-2(1H)-yl)-1,3-dimethyl-1H-indole-2-carboxylic acid]: in experiment [1] (setting [2]), the GI50 is 470 nM. Moreover, the Ki at Mcl-1 is less than 1 nM.

For `Cc1cc(OCCCc2c3n(c4c(-c5c(C)nn(C)c5C)c(Cl)ccc24)[C@H](C)CN(c2cn(C)c4ccc(C(=O)N5CCCC5)cc24)C3=O)cc(C)c1Cl` [Example 290, (4R)-7-chloro-10-[3-(4-chloro-3,5-dimethyl-phenoxy)propyl]-4-methyl-2-[1-methyl-5-(pyrrolidine-1-carbonyl)indol-3-yl]-6-(1,3,5-trimethylpyrazol-4-yl)-3,4-dihydropyrazino[1,2-a]indol-1-one], in experiment [1] (setting [2]), the GI50 came out at 5300 nM. Also, the Ki on Mcl-1 is 12 nM.

With `Cc1cc(OCCCc2c3n(c4c(-c5c(C)nn(C)c5C)c(Cl)ccc24)[C@H](C)CN(c2ccc(C(=O)O)c4c2ccn4C)C3=O)cc(C)c1Cl` [Example 51, (R)-4-(7-chloro-10-(3-(4-chloro-3,5-dimethylphenoxy)propyl)-4-methyl-1-oxo-6-(1,3,5-trimethyl-1H-pyrazol-4-yl)-3,4-dihydropyrazino[1,2-a]indol-2(1H)-yl)-1-methyl-1H-indole-7-carboxylic acid], the GI50 in experiment [1] (setting [2]) was determined as 1500 nM. Besides, the Ki on Mcl-1 is less than 1 nM.

In the case of `Cc1cc(OCCCc2c3n(c4c(-c5c(C)nn(C)c5C)c(Cl)ccc24)[C@H](C)CN(c2cn(C)c4cc(Cl)c(C(=O)O)cc24)C3=O)cc(C)c1Cl` [Example 365, (R)-6-Chloro-3-(7-chloro-10-(3-(4-chloro-3,5-dimethylphenoxy)propyl)-4-methyl-1-oxo-6-(1,3,5-trimethyl-1H-pyrazol-4-yl)-3,4-dihydropyrazino[1,2-a]indol-2(1H)-yl)-1-methyl-1H-indole-5-carboxylic acid], in experiment [1] (setting [2]), the GI50 amounted to 2000 nM. At Mcl-1, the Ki amounted to 1.7 nM.

Regarding `Cc1cc(OCCCc2c3n(c4c(-c5c(C)nn(C)c5C)c(Cl)ccc24)[C@H](C)CN(c2cccc4nc(C(=O)O)ccc24)C3=O)cc(C)c1Cl` [Example 184, (R)-5-(7-chloro-10-(3-(4-chloro-3,5-dimethylphenoxy)propyl)-4-methyl-1-oxo-6-(1,3,5-trimethyl-1H-pyrazol-4-yl)-3,4-dihydropyrazino[1,2-a]indol-2(1H)-yl)quinoline-2-carboxylic acid], the GI50 in experiment [1] (setting [2]) worked out at 770 nM. The Ki at Mcl-1 was less than 1 nM.

For `Cc1cc(OCCCc2c3n(c4c(-c5c(C)nn(C)c5C)c(Cl)ccc24)[C@H](C)CN(c2cn(C)c4ccc(-c5nc[nH]n5)cc24)C3=O)cc(C)c1Cl` [Example 420, (R)-7-Chloro-10-(3-(4-chloro-3,5-dimethylphenoxy)propyl)-4-methyl-2-(1-methyl-5-(1H-1,2,4-triazol-3-yl)-1H-indol-3-yl)-6-(1,3,5-trimethyl-1H-pyrazol-4-yl)-3,4-dihydropyrazino[1,2-a]indol-1(2H)-one], the GI50 in experiment [1] (setting [2]) stood at 280 nM. Also, the Ki on Mcl-1 came out at 2 nM.

As to `Cc1cc(N2C[C@@H](C)n3c(c(CCCOc4cc(C)c(Cl)c(C)c4)c4ccc(Cl)c(-c5c(C)nn(C)c5C)c43)C2=O)c2c(c1)cc(C(=O)O)n2Cc1ccccn1` [Example 295, 7-[(4R)-7-chloro-10-[3-(4-chloro-3,5-dimethyl-phenoxy)propyl]-4-methyl-1-oxo-6-(1,3,5-trimethylpyrazol-4-yl)-3,4-dihydropyrazino[1,2-a]indol-2-yl]-5-methyl-1-(2-pyridylmethyl)indole-2-carboxylic acid], the GI50 in experiment [1] (setting [2]) is less than 200 nM. For the same compound, the Ki on Mcl-1 was less than 1 nM.

For `Cc1cc(OCCCc2c3n(c4c(-c5c(C)nn(C)c5C)c(Cl)ccc24)[C@H](C)CN(c2cn(C)c4cc(S(C)(=O)=O)ccc24)C3=O)cc(C)c1Cl` [Example 222, (R)-7-chloro-10-(3-(4-chloro-3,5-dimethylphenoxy)propyl)-4-methyl-2-(1-methyl-6-(methylsulfonyl)-1H-indol-3-yl)-6-(1,3,5-trimethyl-1H-pyrazol-4-yl)-3,4-dihydropyrazino[1,2-a]indol-1(2H)-one], the GI50 in experiment [1] (setting [2]) was determined as 3000 nM. At Mcl-1, the Ki stood at 6.9 nM.
